Where two headings read alike, the source gives them in different places.
Tests used:
[1] = target: T1, free PSA (York PSA) (Homo sapiens, UniProt P07288); experiment: Recognition of oligopeptide-vinca drug conjugates by free PSA (time to 50% cleavage, HPLC); type: biochemical; conditions: for Time to 50% Substrate Cleavage by York PSA: conjugate to PSA molar ratio 100 to 1, pH 7.4
T1 construct: purchased York ('York PSA')
Protocol: The reaction was quenched after various reaction times by the addition of trifluoroacetic acid (TFA) to a final 1% (volume/volume). Alternatively the reaction is quenched with 10 mM ZnCl2. The quenched reaction was analyzed by HPLC on a reversed-phase C18 column using an aqueous 0.1%TFA/acetonitrile gradient. The amount of time (in minutes) required for 50% cleavage of the noted oligopeptide-cytotoxic agent conjugates with enzymatically active free PSA were then calculated.

[2] = tested on: Colo320DM cells; experiment: In vitro cytotoxicity, Alamar Blue assay, Colo320DM control cell line (does not express free PSA); type: cell-based
Protocol: (§1) In vitro Assay of Cytotoxicity of Peptidyl Derivatives of Vinca Drugs
(§2) The cytotoxicities of the cleaveable oligopeptide-vinca drug conjugates, prepared as described in Example 3, against a line of cells which is known to be killed by unmodified vinca drug was assessed with an Alamar Blue assay. Specifically, cell cultures of LNCap prostate tumor cells, Colo32ODM cells (designated C320) or T47D cells in 96 well plates was diluted with medium containing various concentrations of a given conjugate (final plate well volume of 200 μl). […] The cells were incubated for 3 days at 37° C., 20 μl of Alamar Blue is added to the assay well. The cells were further incubated and the assay plates were read on a EL-310 ELISA reader at the dual wavelengths of 570 and 600 nm at 4 and 7 hours after addition of Alamar Blue. Relative percentage viability at the various concentration of conjugate tested was then calculated versus control (no conjugate) cultures and an EC50 was determined. Unless otherwise indicated, the acetate salt of the conjugate was tested.

[3] = tested on: LNCaP prostate tumor cells; experiment: In vitro cytotoxicity, Alamar Blue assay, LNCaP cell kill; type: cell-based
Protocol: as §1
as §2, with “Specifically,” for “The cytotoxicities of the cleaveable oligopeptide-vinca drug conjugates, prepared as described in Example 3, against a line of cells which is known to be killed by unmodified vinca drug was assessed with an Alamar Blue assay. Specifically,”

[4] = 72 HRS, read-out: Colo320DM EC 50
[5] = 72 HRS, second part of Table 2, read-out: Colo320DM EC 50
[6] = 72 HRS, read-out: LNCaP Cell Kill in 72 HRS. {48 HRS} EC 50
[7] = 72 HRS, second part of Table 2, read-out: LNCaP Cell Kill in 72 HRS. {48 HRS} EC 50

T1 sequence (P07288 25-261): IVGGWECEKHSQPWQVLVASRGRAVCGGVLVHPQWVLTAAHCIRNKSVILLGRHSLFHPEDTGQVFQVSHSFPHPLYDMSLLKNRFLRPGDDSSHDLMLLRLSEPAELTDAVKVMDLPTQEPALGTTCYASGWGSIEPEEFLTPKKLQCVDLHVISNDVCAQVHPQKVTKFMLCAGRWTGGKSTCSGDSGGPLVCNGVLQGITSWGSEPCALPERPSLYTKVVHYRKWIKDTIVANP

Substance | Time to 50% Substrate Cleavage by York PSA [1] [min] | Time to 50% Substrate Cleavage by York PSA ([1]; listed as Ac-4-trans-L-HypSSChgQSS-(4-O-Sar)-(dAc)-VIN) [min] | EC50 [2, 4] [µM] | EC50 [2, 5] [µM] | EC50 [3, 6] [µM] | EC50 [3, 7] [µM] | Remark printed with the cleavage time (stability of conjugate / fate of product) ([1]; PSA digestion) | EC50 ([2]; in 0.5% FBS, read-out: Colo320DM EC 50 in 0.5% FBS) [µM] | EC50 ([3]; in 0.5% FBS, read-out: LNCaP Cell Kill EC 50 in 0.5% FBS) [µM] | Substrate cleavage by York PSA after 1 HOUR ([1]; 1 HOUR) [%]
4-O-(Ac-4-trans-L-HypSSChgQSS-Sar)-(dAc)-VIN: peptide-vinca drug conjugate, printed under SEQ ID NO 86 and 105 (XSSXQSSG; N-acetyl; desacetylvinblastine conjugate) | 32 | 15 | 13 | 12 | 4.1 | 12 | – | – | – | –
Ac-4-trans-L-HypSSChgQS-(4-O-Ala)-(dAc)-VIN: peptide-vinca drug conjugate, SEQ ID NO 103 (XSSXQSA; N-acetyl; desacetylvinblastine conjugate) | 23 | – | – | 32.5 | – | 12.5 | – | – | – | –
4-O-((2-OH)Ac-Abu-SSChgQ-S-P)-dAc-VIN: peptide-vinca drug conjugate, SEQ ID NO 91 (XSSXQSP; N-hydroxyacetyl; desacetylvinblastine conjugate) | 110 | – | 52.5 | – | 11.9 | – | – | – | – | –
4-O-(Ac-4-trans-L-HypSSChgQSV-lactyl)-dAc-VIN: peptide-vinca drug conjugate, SEQ ID NO 94 | 7 | – | 8.1 | – | 3.1 | – | stable | – | – | –
4-O-[Ac--SChgQSS-Sar]-dAc-VIN: peptide-vinca drug conjugate, SEQ ID NO 118 (XXQSSG; N-acetyl; desacetylvinblastine conjugate) | 39 | – | – | 3 | – | 0.8 | – | – | – | –
4-O-(Ac-Abu-SSChgQ-SP)-dAc-VIN: peptide-vinca drug conjugate, SEQ ID NO 90 (XSSXQSP; N-acetyl; desacetylvinblastine conjugate) | 80 | – | 14.5 | – | 9.7 | – | – | 23.8 | > 5 | –
4-O-(Ac-4-trans-L-HypSSChgQSS-(d)-Pro)-(dAc)-VIN: peptide-vinca drug conjugate, SEQ ID NO 87 (XSSXQSSP; N-acetyl; D-Pro; desacetylvinblastine conjugate) | – | – | 8.1 | – | 4.1 | – | – | – | – | 34

Reference: US6174858A, “Conjugates useful in the treatment of prostate cancer” (Merck & Co., Inc., priority 1998, dated 2001)
